Measured values reported in publication PMC11750672, “The in vivo metabolic pathway of Deg-AZM and in vitro investigations into the contribution of drug metabolizing enzymes and drug transporters in the drug interactions of Deg-AZM, a clinical-stage new transgelin agonist” (Frontiers in Pharmacology, 2025).

Assays:
[1] = Bidirectional transport in Caco-2 cell monolayer; format: in vitro ADME, human; details: human, Caco-2, without quinidine
Experimental: (§1) The human colon adenocarcinoma Caco-2 cell line was provided by Institute of Basic Medicine, Chinese Academy of Medical Sciences (Beijing, China). Caco-2 cells were cultured in a high sugar DMEM medium containing 10% (v/v) fetal bovine serum at 37°C and 5% CO2 incubator. Caco-2 cells (2.5 ×10^5/mL) was inoculated into Transwell polycarbonate membrane 12 well plate. The culture medium was changed every 2 days for the first 14 days, and then every day. After 21 consecutive days, fully differentiated cell monolayers were obtained for drug transport assays.
(§2) Transepithelial electrical resistance (TEER) was used to indicate monolayer integrity. The electrode of the Millcell ERS-2 voltammeter was placed in HBSS solution for 20 min to pre-balance. At the same time, the culture medium was removed from the Transwell culture plate, 0.5 mL of pre-heated HBSS solution was added into the Apical (AP) of transwell, 1.5 mL of pre-heated HBSS solution was added into the Basolateral (BL) of transwell. After that, the transwell was balanced at 37°C for 20 min and then replaced the HBSS solution with the pre-heated HBSS solution, the TEER value was measured finally. Caco-2 cell monolayers with TEER >350 Ω cm^2 which means that the cells have formed a tight monolayer, were used for the experiment. The TEER value was calculated according to the following formula: TEER=TEERT ‐ TEERc×A where TEERT represented the TEER value (Ω) of the measured Transwell chamber with Caco-2 cells, TEERC was the TEER value (Ω) of the transwell chamber in the control group, and A was the membrane area of the transwell cavity (1.12 cm^2 in this experiment).
(§3) In order to evaluate the usability of the Transwell model research, [^3H] Propranolol (0.5 μCi/mL) and [^14C] PEG4000 (1 μCi/mL) served as high-permeability and impermeability controls to verify the uptake direction on Caco-2 cell monolayer, respectively. Rhodamine 123 was used as a positive control for efflux mechanism in bidirectional transport assay on Caco-2 cell monolayer.
(§4) The transmembrane permeability of Deg-AZM (2, 10 or 50 µM) and the potential to inhibit P-gp by Deg-AZM (2, 10 or 50 µM) were evaluated using Caco-2 cell monolayer both apical-to-basolateral (A-B) and basolateral-to-apical (B-A) directions at 37°C for 1 h, the experiments were conducted using quinidine (50 μM) as the inhibitor for P-gp. At the end of incubation, receiver and donor samples were both diluted by assay buffer and analyzed by LC-MS/MS.

Caco-2 cell monolayer = test: Bidirectional transport in Caco-2 cell monolayer; format: in vitro ADME, human; details: 2, 10 and 50 μM, intake direction
Experimental: as §1, §2, §3, §4

pooled HLM = test: HLM phenotyping assay, control group and positive control systems; format: in vitro ADME, human; details: 1 μM, HLM 0.5 mg/mL, NADPH, 90 min, control group without inhibitors
Experimental: (§5) Deg-AZM (1 μM) was treated with pooled HLM (0.5 mg/mL) and NADPH (1 mM) for 90 min with or without seven specific inhibitors (10 µM furafylline for CYP1A2, 10 µM ticlopidine for CYP2B6, 5 µM montelukast for CYP2C8, 10 µM sulfaphenazole for CYP2C9, 10 µM ticlopidine for CYP2C19, 2.5 µM quinidine for CYP2D6, 1 µM ketoconazole for CYP3A). Isoform-selective probe substrates, 10 µM phenacetin for CYP1A2, 20 µM bupropion for CYP2B6, 2 µM amodiaquine for CYP2C8, 5 µM diclofenac for CYP2C9, 20 µM S-mephenytoin for CYP2C19, 5 µM bufuralol for CYP2D6, 2 µM midazolam for CYP3A4, were used as positive controls.

CYP3A = test: HLM phenotyping assay with CYP3A inhibitor ketoconazole; format: in vitro ADME, human; details: 1 μM, HLM 0.5 mg/mL, NADPH, 90 min, with 1 µM ketoconazole
Experimental: as §5

CYP2C9 = target: T1, CYP2C9 (Homo sapiens, UniProt P11712); test: HLM phenotyping assay with CYP2C9 inhibitor sulfaphenazole; format: in vitro ADME; details: 1 μM, HLM 0.5 mg/mL, NADPH, 90 min, with 10 µM sulfaphenazole
T1 construct: from tissue; host or cells: human liver microsomes
Experimental: as §5

[2] = parameters: method as in Gu et al., 2024; details: rats, 0-24 h; ref Gu et al., 2024; cited from earlier work

T1 sequence (P11712 whole entry): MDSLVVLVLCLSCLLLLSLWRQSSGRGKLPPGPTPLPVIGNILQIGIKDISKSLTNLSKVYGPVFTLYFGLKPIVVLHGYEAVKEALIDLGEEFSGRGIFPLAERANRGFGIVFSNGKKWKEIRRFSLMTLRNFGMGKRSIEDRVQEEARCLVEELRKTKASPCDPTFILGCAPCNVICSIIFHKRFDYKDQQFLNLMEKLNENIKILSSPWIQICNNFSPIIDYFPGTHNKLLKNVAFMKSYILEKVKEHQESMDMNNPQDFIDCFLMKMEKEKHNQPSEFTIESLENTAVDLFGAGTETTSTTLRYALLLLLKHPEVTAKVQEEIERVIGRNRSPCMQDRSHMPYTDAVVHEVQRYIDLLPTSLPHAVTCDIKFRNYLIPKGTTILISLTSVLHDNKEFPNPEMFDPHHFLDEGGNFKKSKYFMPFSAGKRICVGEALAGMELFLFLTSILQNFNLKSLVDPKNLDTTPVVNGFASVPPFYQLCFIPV

## CCC1OC(=O)C(C)C(O)C(C)C(O)C(C)(O)CC(C)CN(C)C(C)C(O)C1(C)O (stereo not drawn) [Deg-AZM, Deglycosylated azithromycin]
[1]; 2 μM, 37°C 1 h, n = 3
  Papp A→B at 1 h, 2 μM: 0.326 ± 0.0481 ×10⁻⁶ cm/s
  Papp B→A at 1 h, 2 μM: 5.27 ± 0.771 ×10⁻⁶ cm/s
[1]; 2 μM, read-out: ER
  efflux ratio at 1 h, 2 μM: 16.2
[1]; 10 μM, 37°C 1 h, n = 3
  Papp A→B at 1 h, 10 μM: 0.302 ± 0.0416 ×10⁻⁶ cm/s
  Papp B→A at 1 h, 10 μM: 3.7 ± 0.485 ×10⁻⁶ cm/s
[1]; 10 μM, read-out: ER
  efflux ratio at 1 h, 10 μM: 12.2
[1]; 50 μM, 37°C 1 h, n = 3
  Papp A→B at 1 h, 50 μM: 0.316 ± 0.0201 ×10⁻⁶ cm/s
  Papp B→A at 1 h, 50 μM: 3.16 ± 0.401 ×10⁻⁶ cm/s
[1]; 50 μM, read-out: ER
  efflux ratio at 1 h, 50 μM: 10
Caco-2 cell monolayer
  Permeability classification: low permeability drug with poor transmembrane ability
Pooled HLM
  Deg-AZM remaining: 45.7%
CYP3A
  Deg-AZM remaining: 93.4%
CYP2C9
  Deg-AZM remaining: 67.5%
[2]
  Amount excreted in original form from feces: 1.81 % of the administered dose
  Amount excreted in original form from urine: 14.9 % of the administered dose
